The structures appear in SMILES notation.

The test concerns RKO p21 uninduced (proliferating) colon adenocarcinoma cells. Put plainly: Alamar Blue cell viability assay, RKO p21 uninduced (proliferating). Format: cell-based. Particulars: Homo sapiens, Table B3, anti-proliferative/cytotoxic activity, 72 hours, read-out: −log EC50 RKO p21 uninduced (proliferating) (converted). In a few lines:
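RKO p21 or p27 subclones grown without Ponasterone A, i.e. proliferating, exposed 24 h after seeding to semi-log compound dilutions in DMEM/10% FCS (1% DMSO controls) for 72 h at 37° C. Alamar Blue fluorescence (544/590 nm) read relative to untreated cells; EC50 from dose-response curves, given as −log EC50 (mol/l).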
On to `CCN(C)CCN1C(=O)N2[C@H](c3cccc(O)c3)c3[nH]c4ccc(OC(F)F)cc4c3C[C@@]2(C)C1=O` (racemic) [Example 275, (3aSR,10RS)-6-(1,1-Difluoro-methoxy)-2-[2-(ethyl-methyl-amino)-ethyl]-10-(3-hydroxy-phenyl)-3a-methyl-3a,4,9,10-tetrahydro-2,9,10a-triaza-cyclopenta[b]fluorene-1,3-dione], for which the EC50 is ≤ 39.8 nM.
Consider `CCN(C)CCCN1C(=O)N2[C@H](c3cccc(O)c3)c3[nH]c4cc(F)c(OC)cc4c3C[C@@]2(C)C1=O` (racemic) [Example 311, (3aSR,10RS)-2-[3-(Ethyl-methyl-amino)-propyl]-7-fluoro-10-(3-hydroxy-phenyl)-6-methoxy-3a-methyl-3a,4,9,10-tetrahydro-2,9,10a-triaza-cyclopenta[b]fluorene-1,3-dione], for which the EC50 is 39.8 to 251 nM.
As for `C[C@@]12Cc3c([nH]c4ccc(OC(F)F)cc34)[C@@H](c3cccc(O)c3)N1C(=O)N(CCCN1CCCCC1)C2=O` (racemic) [Example 239, (3aSR,10RS)-6-(1,1-Difluoro-methoxy)-10-(3-hydroxy-phenyl)-3a-methyl-2-(3-piperidin-1-yl-propyl)-3a,4,9,10-tetrahydro-2,9,10a-triaza-cyclopenta[b]fluorene-1,3-dione], the EC50 was ≤ 39.8 nM.
With `C=CCN(C)CCCN1C(=O)N2[C@H](c3cccc(O)c3)c3[nH]c4ccc(Cl)cc4c3C[C@@]2(C)C1=O` (racemic) [Example 169, (3aSR,10RS)-2-[3-(Allyl-methyl-amino)-propyl]-6-chloro-10-(3-hydroxy-phenyl)-3a-methyl-3a,4,9,10-tetrahydro-2,9,10a-triaza-cyclopenta[b]fluorene-1,3-dione] the figure was ≤ 39.8 nM; with `CCN(CCCN1C(=O)N2[C@H](c3cccc(O)c3)c3[nH]c4cc(F)c(Cl)cc4c3C[C@@]2(C)C1=O)CCOC` (racemic) [Example 471, (3aSR,10RS)-6-Chloro-2-{3-[ethyl-(2-methoxy-ethyl)-amino]-propyl}-7-fluoro-10-(3-hydroxy-phenyl)-3a-methyl-3a,4,9,10-tetrahydro-2,9,10a-triaza-cyclopenta[b]fluorene-1,3-dione], 39.8 to 251 nM.
As for `CNCCN1C(=O)N2[C@H](c3cccc(O)c3)c3[nH]c4ccc(Br)cc4c3C[C@@]2(C)C1=O` (racemic) [Example 394, (3aSR,10RS)-6-Bromo-10-(3-hydroxy-phenyl)-3a-methyl-2-(2-methylamino-ethyl)-3a,4,9,10-tetrahydro-2,9,10a-triaza-cyclopenta[b]fluorene-1,3-dione], the figure is ≤ 39.8 nM; as for `CCOc1ccc2[nH]c3c(c2c1)C[C@@]1(C)C(=O)N(CCCN(C)CCO)C(=O)N1[C@@H]3c1cccc(O)c1` (racemic) [Example 193, (3aSR,10RS)-6-Ethoxy-2-{3-[(2-hydrox-ethyl)-methyl-amino]-propyl}-10-(3-hydroxy-phenyl)-3a-methyl-3a,4,9,10-tetrahydro-2,9,10a-triaza-cyclopenta[b]fluorene-1,3-dione], 39.8 to 251 nM; as for `C[C@@]12Cc3c([nH]c4cc(F)c(Cl)cc34)[C@@H](c3cccc(O)c3)N1C(=O)N(CCNCC1CC1)C2=O` (racemic) [Example 341, (3aSR,10RS)-6-Chloro-2-[2-(cyclopropylmethyl-amino)-ethyl]-7-fluoro-10-(3-hydroxy-phenyl)-3a-methyl-3a,4,9,10-tetrahydro-2,9,10a-triaza-cyclopenta[b]fluorene-1,3-dione], ≤ 39.8 nM.
As for `CC(C)N(C)CCCN1C(=O)N2[C@H](c3cccc(O)c3)c3[nH]c4ccc(Br)cc4c3C[C@@]2(C)C1=O` (racemic) [Example 218, (3aSR,10RS)-6-Bromo-10-(3-hydroxy-phenyl)-2-[3-(isopropyl-methyl-amino)-propyl]-3a-methyl-3a,4,9,10-tetrahydro-2,9,10a-triaza-cyclopenta[b]fluorene-1,3-dione], the EC50 was ≤ 39.8 nM.
On to `COc1cc2c3c([nH]c2cc1F)[C@@H](c1cccc(O)c1)N1C(=O)N(CCCN(C)C)C(=O)[C@]1(C)C3` (racemic) [Example 310, (3aSR,10RS)-2-(3-Dimethylamino-propyl)-7-fluoro-10-(3-hydroxy-phenyl)-6-methoxy-3a-methyl-3a,4,9,10-tetrahydro-2,9,10a-triaza-cyclopenta[b]fluorene-1,3-dione], for which the EC50 was 39.8 to 251 nM.
With `C[C@@]12Cc3c([nH]c4ccc(Cl)cc34)[C@@H](c3cccc(O)c3)N1C(=O)N(CCCN1CCCC1)C2=O` (racemic) [Example 172, (3aSR,10RS)-6-Chloro-10-(3-hydroxy-phenyl)-3a-methyl-2-(3-pyrrolidin-1-yl-propyl)-3a,4,9,10-tetrahydro-2,9,10a-triaza-cyclopenta[b]fluorene-1,3-dione], the EC50 was ≤ 39.8 nM.
For `CC(C)CNCCN1C(=O)N2[C@H](c3cccc(O)c3)c3[nH]c4ccc(OC(F)F)cc4c3C[C@@]2(C)C1=O` (racemic) [Example 269, (3aSR,10RS)-6-(1,1-Difluoro-methoxy)-10-(3-hydroxy-phenyl)-2-(2-isobutylamino-ethyl)-3a-methyl-3a,4,9,10-tetrahydro-2,9,10a-triaza-cyclopenta[b]fluorene-1,3-dione], the EC50 is ≤ 39.8 nM.
As for `CCN(CCCN1C(=O)N2[C@H](c3cccc(O)c3)c3[nH]c4ccc(OC(F)F)cc4c3C[C@@]2(C)C1=O)CCOC` (racemic) [Example 178, (3aSR,10RS)-6-(1,1-Difluoro-methoxy)-2-{3-[ethyl-(2-methoxy-ethyl)-amino]-propyl}-10-(3-hydroxy-phenyl)-3a-methyl-3a,4,9,10-tetrahydro-2,9,10a-triaza-cyclopenta[b]fluorene-1,3-dione], the figure is ≤ 39.8 nM; as for `CCN(CCO)CCN1C(=O)N2[C@H](c3cccc(O)c3)c3[nH]c4ccc(OC(F)F)cc4c3C[C@@]2(C)C1=O` (racemic) [Example 277, (3aSR,10RS)-6-(1,1-Difluoro-methoxy)-2-{2-[ethyl-(2-hydroxy-ethyl)-amino]-ethyl}-10-(3-hydroxy-phenyl)-3a-methyl-3a,4,9,10-tetrahydro-2,9,10a-triaza-cyclopenta[b]fluorene-1,3-dione], 39.8 to 251 nM; as for `C#CCNCCCN1C(=O)N2[C@H](c3cccc(O)c3)c3[nH]c4ccc(OCC)cc4c3C[C@@]2(C)C1=O` (racemic) [Example 225, (3aSR,10RS)-6-Ethoxy-10-(3-hydroxy-phenyl)-3a-methyl-2-(3-prop-2-ynylamino-propyl)-3a,4,9,10-tetrahydro-2,9,10a-triaza-cyclopenta[b]fluorene-1,3-dione], 39.8 to 251 nM.
As for `CCOc1ccc2[nH]c3c(c2c1)C[C@@]1(C)C(=O)N(CCCN2CC=CCC2)C(=O)N1[C@@H]3c1cccc(O)c1` (racemic) [Example 208, (3aSR,10RS)-2-[3-(3,6-Dihydro-2H-pyridin-1-yl)-propyl]-6-ethoxy-10-(3-hydroyx-phenyl)-3a-methyl-3a,4,9,10-tetrahydro-2,9,10a-triaza-cyclopenta[b]fluorene-1,3-dione], the figure is 39.8 to 251 nM; as for `CC(C)NCCCN1C(=O)N2[C@H](c3cccc(O)c3)c3[nH]c4ccc(Cl)cc4c3C[C@@]2(C)C1=O` (racemic) [Example 392, (3aSR,10RS)-6-Chloro-10-(3-hydroxy-phenyl)-2-(3-isopropylamino-propyl)-3a-methyl-3a,4,9,10-tetrahydro-2,9,10a-triaza-cyclopenta[b]fluorene-1,3-dione], ≤ 39.8 nM; as for `C[C@@]12Cc3c([nH]c4ccc(Br)cc34)[C@@H](c3cccc(O)c3)N1C(=O)N(CCN1CCCCC1)C2=O` (racemic) [Example 390, (3aSR,10RS)-6-Bromo-10-(3-hydroxy-phenyl)-3a-methyl-2-(2-piperidin-1-yl-ethyl)-3a,4,9,10-tetrahydro-2,9,10a-triaza-cyclopenta[b]fluorene-1,3-dione], ≤ 39.8 nM.
With `C[C@@]12Cc3c([nH]c4ccc(OC(F)F)cc34)[C@@H](c3cccc(O)c3)N1C(=O)N(CCN)C2=O` (racemic) [Example 283, (3aSR,10RS)-2-(2-Amino-ethyl)-6-(1,1-difluoro-methoxy)-10-(3-hydroxy-phenyl)-3a-methyl-3a4,9,10-tetrahydro-2,9,10a-triaza-cyclopenta[b]fluorene-1,3-dione] the figure was 39.8 to 251 nM; with `COc1ccc2[nH]c3c(c2c1)C[C@@]1(C)C(=O)N(CCCN2CCN(C(C)=O)CC2)C(=O)N1[C@@H]3c1cccc(O)c1` (racemic) [Example 151, (3aSR,10RS)-2-[3-(4-Acetyl-piperazin-1-yl)-propyl]-10-(3-hydroxy-phenyl)-6-methoxy-3a-methyl-3a,4,9,10-tetrahydro-2,9,10a-triaza-cyclopenta[b]fluorene-1,3-dione], 39.8 to 251 nM.
In the case of `CCN(C)CCCN1C(=O)N2[C@H](c3cccc(O)c3)c3[nH]c4ccc(OC(F)F)cc4c3C[C@@]2(C)C1=O` (racemic) [Example 247, (3aSR,10RS)-6-(1,1-Difluoro-methoxy)-2-[3-(ethyl-methyl-amino)-propyl]-10-(3-hydroxy-phenyl)-3a-methyl-3a,4,9,10-tetrahydro-2,9,10a-triaza-cyclopenta[b]fluorene-,3-dione], the EC50 was ≤ 39.8 nM.
`C=CCNCCN1C(=O)N2[C@H](c3cccc(O)c3)c3[nH]c4ccc(Br)cc4c3C[C@@]2(C)C1=O` (racemic) [Example 383, (3aSR,10RS)-2-(2-Allylamino-ethyl)-6-bromo-10-(3-hydroxy-phenyl)-3a-methyl-3a,4,9,10-tetrahydro-2,9,10a-triaza-cyclopenta[b]fluorene-1,3-dione]: the EC50 is ≤ 39.8 nM.
For `CC(=O)N1CCN(CCCN2C(=O)N3[C@H](c4cccc(O)c4)c4[nH]c5ccc(Br)cc5c4C[C@@]3(C)C2=O)CC1` (racemic) [Example 220, (3aSR,10RS)-2-[3-(4-Acetyl-piperazin-1-yl)-propyl]-6-bromo-10-(3-hydroxy-phenyl)-3a-methyl-3a,4,9,10-tetrahydro-2,9,10a-triaza-cyclopenta[b]fluorene-1,3-dione], the EC50 is 39.8 to 251 nM.

(Values after patent US8530493B2, “Indolopyridines as Eg5 kinesin modulators” (4SC AG, priority 2006, dated 2013).)
